Assay results taken from patent US12187728B2 (Raze Therapeutics, Inc., priority 2015, dated 2025).
pIC50: −log10 of the molar value.

Biological target: T1, Human MTHFD2 (Homo sapiens, UniProt P13995)
T1 construct: residues 36-350 in Uniport ID P13995; His6 (N); made in house; host or cells: E. coli
T1 sequence (P13995 36-350): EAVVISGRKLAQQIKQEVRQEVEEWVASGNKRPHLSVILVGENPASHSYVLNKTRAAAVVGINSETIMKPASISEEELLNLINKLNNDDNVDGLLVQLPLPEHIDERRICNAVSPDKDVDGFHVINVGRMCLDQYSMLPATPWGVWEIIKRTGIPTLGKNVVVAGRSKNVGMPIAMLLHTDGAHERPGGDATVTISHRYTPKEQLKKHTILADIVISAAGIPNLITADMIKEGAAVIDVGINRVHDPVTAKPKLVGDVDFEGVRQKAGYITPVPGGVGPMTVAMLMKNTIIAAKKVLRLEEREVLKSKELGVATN
Experiment: MTHFD2 Activity Assay (dehydrogenase activity, diaphorase/resazurin coupled fluorescence)
Type: biochemical
Conditions: inhibitory activity (IC50 and/or binding constant); 0.2 nM MTHFD2, 11 concentrations
Method in brief: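 Resorufin fluorescence (ex 525, em 598 nm) reports NADH formed by the dehydrogenase via diaphorase coupling. Enzyme (0.2 nM, residues 36-350, N-His6) sat with compound 15 min before 70 μM CH2-THF and 1 mM NAD+ started a 30 min reaction. IC50s come from 4-parameter fits over 11 concentrations.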

| SMILES | pIC50 |
| --- | --- |
| Cn1c([C@H](N)Cc2ccccn2)nc2c1c(=O)n(Cc1cc3c(Cl)cccc3[nH]1)c(=O)n2C [Example 472, (R)-8-(1-amino-2-(pyridin-2-yl)ethyl)-1-((4-chloro-1H-indol-2-yl)methyl)-3,7-dimethyl-1H-purine-2,6(3H,7H)-dione] | 6.00 to 8.00 |
| Cn1c(C(N)CO)nc2c1c(=O)n(Cc1cc3c(Cl)cccc3[nH]1)c(=O)n2C (centres unmarked) [Example 458, 8-(1-amino-2-hydroxy-ethyl)-1-[(4-chloro-1H-indol-2-yl)methyl]-3,7-dimethyl-purine-2,6-dione] | 6.00 to 8.00 |
| Cn1c(CCO)nc2c1c(=O)n(Cc1cc3cc(Cl)ccc3[nH]1)c(=O)n2C [Example 223, 1-((5-chloro-1H-indol-2-yl)methyl)-8-(2-hydroxyethyl)-3,7-dimethyl-1H-purine-2,6(3H,7H)-dione] | 5.30 to 6.00 |
| Cn1c(N[C@@H]2CCC[C@@H]2C(=O)O)nc2c1c(=O)n(Cc1ccc(Cl)c(Cl)c1)c(=O)n2C [Example 111, (1S,2R)-2-(1-(3,4-dichlorobenzyl)-3,7-dimethyl-2,6-dioxo-2,3,6,7-tetrahydro-1H-purin-8-ylamino)cyclopentanecarboxylic acid] | 6.00 to 8.00 |
| C[C@@H](O)CNc1nc2c(c(=O)n(Cc3ccc(Cl)c(F)c3)c(=O)n2C)n1C [Example 24, 1-[(4-chloro-3-fluorophenyl)methyl]-8-{[(2R)-2-hydroxypropyl]amino}-3,7-dimethyl-2,3,6,7-tetrahydro-1H-purine-2,6-dione] | 5.00 to 5.30 |
| Cn1c(Nc2ccc(CN)nc2)nc2c1c(=O)n(Cc1cc3c(Cl)cccc3[nH]1)c(=O)n2C [Example 429, 8-(6-(aminomethyl)pyridin-3-ylamino)-1-((4-chloro-1H-indol-2-yl)methyl)-3,7-dimethyl-1H-purine-2,6(3H,7H)-dione] | 6.00 to 8.00 |
| Cn1c(Nc2cccc(CCCO)n2)nc2c1c(=O)n(Cc1ccc(Cl)c(Cl)c1)c(=O)n2C [Example 293, 1-(3,4-dichlorobenzyl)-8-(6-(3-hydroxypropyl)pyridin-2-ylamino)-3,7-dimethyl-1H-purine-2,6(3H,7H)-dione] | 6.00 to 8.00 |
| Cn1c(NCC(=O)O)nc2c1c(=O)n(Cc1ccc(Cl)c(Cl)c1)c(=O)n2C [Example 134, 2-(1-(3,4-dichlorobenzyl)-3,7-dimethyl-2,6-dioxo-2,3,6,7-tetrahydro-1H-purin-8-ylamino)acetic acid] | 5.30 to 6.00 |
| Cn1c(NCCCO)nc2c1c(=O)n(Cc1ccc(Cl)c(C(F)(F)F)c1)c(=O)n2C [Example 67, 1-{[4-chloro-3-(trifluoromethyl)phenyl]methyl}-8-[(3-hydroxypropyl)amino]-3,7-dimethyl-2,3,6,7-tetrahydro-1H-purine-2,6-dione] | 6.00 to 8.00 |
| C[C@H](O)CNc1nc2c(c(=O)n(Cc3ccc(C(F)(F)F)cc3)c(=O)n2C)n1C [Example 36, 8-{[(2S)-2-hydroxypropyl]amino}-3,7-dimethyl-1-{[4-(trifluoromethyl)phenyl]methyl}-2,3,6,7-tetrahydro-1H-purine-2,6-dione] | 5.00 to 5.30 |
| Cn1c(-n2nccc2N)nc2c1c(=O)n(Cc1cc3ccccc3[nH]1)c(=O)n2C [Example 217, 1-((1H-indol-2-yl)methyl)-8-(5-amino-1H-pyrazol-1-yl)-3,7-dimethyl-1H-purine-2,6(3H,7H)-dione] | 6.00 to 8.00 |
| Cc1ccc2[nH]c(Cn3c(=O)c4c(ncn4C)n(C)c3=O)cc2c1 [Example 236, 3,7-dimethyl-1-((5-methyl-1H-indol-2-yl)methyl)-1H-purine-2,6(3H,7H)-dione] | 5.30 to 6.00 |
| Cn1c(N[C@H]2CC[C@H](CO)C2)nc2c1c(=O)n(Cc1ccc(Cl)c(Cl)c1)c(=O)n2C (racemic) [Example 325, (±)-1-(3,4-dichlorobenzyl)-8-((trans)-3-(hydroxymethyl)cyclopentylamino)-3,7-dimethyl-1H-purine-2,6(3H,7H)-dione] | 6.00 to 8.00 |
| COc1cc(Nc2nc3c(c(=O)n(Cc4cc5c(Cl)cccc5[nH]4)c(=O)n3C)n2C)ccn1 [Example 333, 1-[(4-chloro-1H-indol-2-yl)methyl]-8-[(2-methoxy-4-pyridyl)amino]-3,7-dimethyl-purine-2,6-dione] | 6.00 to 8.00 |
| Cn1c(Cn2c(=O)c3c(nc(Nc4ccncn4)n3C)n(C)c2=O)cc2cc(Cl)ccc21 [Example 204, 1-((5-chloro-1-methyl-1H-indol-2-yl)methyl)-3,7-dimethyl-8-(pyrimidin-4-ylamino)-1H-purine-2,6(3H,7H)-dione] | 6.00 to 8.00 |
| Cn1c(Nc2ccncc2)nc2c1c(=O)n(Cc1cc3c(C(F)(F)F)cccc3[nH]1)c(=O)n2C [Example 404, 3,7-dimethyl-8-(pyridin-4-ylamino)-1-((4-(trifluoromethyl)-1H-indol-2-yl)methyl)-1H-purine-2,6(3H,7H)-dione] | 6.00 to 8.00 |
| Cn1c(CCO)nc2c1c(=O)n(Cc1cc3ccccc3[nH]1)c(=O)n2C [Example 212, 1-((1H-indol-2-yl)methyl)-8-(2-hydroxyethyl)-3,7-dimethyl-1H-purine-2,6(3H,7H)-dione] | 5.30 to 6.00 |

The remaining lines, values ahead:

| pIC50 | SMILES |
| --- | --- |
| 6.00 to 8.00 | CCc1cccc2[nH]c(Cn3c(=O)c4c(nc(Nc5ccncc5)n4C)n(C)c3=O)cc12 [Example 387, 1-((4-ethyl-1H-indol-2-yl)methyl)-3,7-dimethyl-8-(pyridin-4-ylamino)-1H-purine-2,6(3H,7H)-dione] |
| 5.30 to 6.00 | Cn1c(NC2CC(F)(F)C2)nc2c1c(=O)n(Cc1ccc(Cl)c(Cl)c1)c(=O)n2C [Example 112, 1-(3,4-dichlorobenzyl)-8-(3,3-difluorocyclobutylamino)-3,7-dimethyl-1H-purine-2,6(3H,7H)-dione] |
| 6.00 to 8.00 | Cn1c(Nc2cccc(CCC(N)=O)n2)nc2c1c(=O)n(Cc1ccc(Cl)c(Cl)c1)c(=O)n2C [Example 292, 3-(6-(1-(3,4-dichlorobenzyl)-3,7-dimethyl-2,6-dioxo-2,3,6,7-tetrahydro-1H-purin-8-ylamino)pyridin-2-yl)propanamide] |
| 6.00 to 8.00 | Cn1c(Nc2ccc(CC(=O)O)cc2)nc2c1c(=O)n(Cc1ccc(Cl)c(Cl)c1)c(=O)n2C [Example 288, 2-(4-((1-(3,4-dichlorobenzyl)-3,7-dimethyl-2,6-dioxo-2,3,6,7-tetrahydro-1H-purin-8-yl)amino)phenyl)acetic acid] |
| 6.00 to 8.00 | Cc1cccc2[nH]c(Cn3c(=O)c4c(nc(NC5CCCC(C(=O)O)C5)n4C)n(C)c3=O)cc12 (centres unmarked) [Example 342, 3-(3,7-dimethyl-1-((4-methyl-1H-indol-2-yl)methyl)-2,6-dioxo-2,3,6,7-tetrahydro-1H-purin-8-ylamino)cyclohexanecarboxylic acid] |
| 6.00 to 8.00 | Cn1c(N[C@H]2CCC[C@H](O)C2)nc2c1c(=O)n(Cc1ccc(Cl)c(Cl)c1)c(=O)n2C (single isomer, unassigned) [Example 81, 1-(3,4-dichlorobenzyl)-8-((1S,3S)-3-hydroxycyclohexylamino)-3,7-dimethyl-1H-purine-2,6(3H,7H)-dione or 1-(3,4-dichlorobenzyl)-8-((1R,3R)-3-hydroxycyclohexylamino)-3,7-dimethyl-1H-purine-2,6(3H,7H)-dione] |
| 6.00 to 8.00 | Cn1c(C(N)C(CO)CO)nc2c1c(=O)n(Cc1cc3c(Cl)cccc3[nH]1)c(=O)n2C (centres unmarked) [Example 465, 8-[1-amino-3-hydroxy-2-(hydroxymethyl)propyl]-1-[(4-chloro-1H-indol-2-yl)methyl]-3,7-dimethyl-purine-2,6-dione] |
| 6.00 to 8.00 | Cn1c(CCO)nc2c1c(=O)n(Cc1ccc(Cl)c(Cl)c1)c(=O)n2C [Example 158, 1-(3,4-dichlorobenzyl)-8-(2-hydroxyethyl)-3,7-dimethyl-1H-purine-2,6(3H,7H)-dione] |
| 6.00 to 8.00 | Cn1c(Nc2ccnc([C@@H]3C[C@H]3C(=O)O)c2)nc2c1c(=O)n(Cc1cc3c(Cl)cccc3[nH]1)c(=O)n2C (single isomer, unassigned) [Example 322, (1R,2R)-2-(4-((1-((4-chloro-1H-indol-2-yl)methyl)-3,7-dimethyl-2,6-dioxo-2,3,6,7-tetrahydro-1H-purin-8-yl)amino)pyridin-2-yl)cyclopropanecarboxylic acid or (1S,2S)-2-(4-((1-((4-chloro-1H-indol-2-yl)methyl)-3,7-dimethyl-2,6-dioxo-2,3,6,7-tetrahydro-1H-purin-8-yl)amino)pyridin-2-yl)cyclopropanecarboxylic acid] |
| 6.00 to 8.00 | Cn1c(Nc2ccncc2)nc2c1c(=O)n(Cc1cc3c(Cl)cccc3[nH]1)c(=O)n2C1CC1 [Example 466, 1-[(4-chloro-1H-indol-2-yl)methyl]-3-cyclopropyl-7-methyl-8-(4-pyridylamino)purine-2,6-dione] |
| 6.00 to 8.00 | CC(CN)c1nc2c(c(=O)n(Cc3cc4c(Cl)cccc4[nH]3)c(=O)n2C)n1C (centres unmarked) [Example 485, 8-(1-aminopropan-2-yl)-1-((4-chloro-1H-indol-2-yl)methyl)-3,7-dimethyl-1H-purine-2,6(3H,7H)-dione] |
| 6.00 to 8.00 | Cn1c(Nc2ccnc(CCC(=O)N3CCC3)n2)nc2c1c(=O)n(Cc1cc3c(Cl)cccc3[nH]1)c(=O)n2C [Example 413, 8-(2-(3-(azetidin-1-yl)-3-oxopropyl)pyrimidin-4-ylamino)-1-((4-chloro-1H-indol-2-yl)methyl)-3,7-dimethyl-1H-purine-2,6(3H,7H)-dione] |
